Data from patent EP2119770B1, “Production of alpha-oxyfunctionalized carbonyl compounds” (priority 2008, dated 2009).
Where “and” joins values, the source holds several entries; their conditions need not be identical. Equal entries are not always repeated.

Assays:
Gox0646 = biological target: T1, Gox0646 (Gluconobacter oxydans, UniProt Q5FT73); assay: Enzyme activity assay (rate of NAD(P)H decrease at 340 nm), Gox0646; assay type: biochemical; settings: 10 mM substrate; for Specific Activities: Tab. 9, GOX0646, cofactor NADPH, pH 7.0, 30 °C
T1 sequence (Q5FT73 1-264): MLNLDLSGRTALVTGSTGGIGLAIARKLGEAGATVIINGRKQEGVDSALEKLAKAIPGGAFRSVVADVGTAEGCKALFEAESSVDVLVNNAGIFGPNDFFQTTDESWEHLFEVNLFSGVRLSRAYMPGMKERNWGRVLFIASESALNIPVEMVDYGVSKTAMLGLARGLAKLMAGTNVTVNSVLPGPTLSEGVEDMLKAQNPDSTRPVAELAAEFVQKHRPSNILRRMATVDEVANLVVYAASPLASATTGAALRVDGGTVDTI
Protocol: (§1) Measurment of enzyme activity: NADPH-dependent alpha-ketocarbonyl reductases were assayed by a routine method used for NAD(P)-linked enzymes by recording the rate of decrease of NADPH at 340 nm (ε = 6.22 mM^-1 x cm^-1)) with substrates at 30 °C. The reaction mixture (1 ml) for reduction of alpha-ketocarbonyl substrates contained 10 mM substrate, 40 mM potassium phosphate buffer pH 7.0, 0.025 mM NAD(P)H , and the enzyme. Reactions were induced by addition of enzyme or substrate. One unit of enzyme activity was defined as the amount of enzyme catalyzing the conversion of 1 µmol of pyridine nucleotide per min at 30 °C.
(§2) NADPH-dependent α-ketocarbonyl reductases were assayed by a routine method used for NAD(P)-linked enzymes by recording the rate of decrease of NADPH at 340 nm (ε = 6.22 mM^-1.cm^-1) with substrates at 30 °C. The reaction mixture (1 ml) for reduction of alpha-ketocarbonyl substrates contained 10 mM substrate, 40 mM potassium phosphate buffer pH 7.0, 0.025 mM NADPH , and the enzyme. Reactions were induced by addition of enzyme or substrate. One unit of enzyme activity was defined as the amount of enzyme catalyzing the conversion of 1 µmol of pyridine nucleotide per min at 30 °C.
(§3) For each enzyme (Gox0313, Gox0502, Gox0644, Gox0646, Gox1615, Gox2107, and Gox2684 respectively), fresh enzyme preparations were used to validate the substrate spectrum and the kinetic activity. […] Purified NAD(P)-dependent oxidoreductases were assayed at 30 °C by a routine method used for NAD(P)-linked enzymes by recording the rate of decrease of NAD(P)H at 340 nm (ε = […]) with substrates capable of reduction reactions. The standard reaction mixture (1 ml) for the reduction reactions of substrates contained 10 mM substrate, 40 mM potassium phosphate buffer (K-phosphate buffer) pH 7.0, 0.05 mM NAD(P)H, and the enzyme unless otherwise noted. Reactions were induced by addition of enzyme or substrate. One unit of enzyme activity was defined as the amount of enzyme catalyzing the conversion of 1 µmol of pyridine nucleotide per min at 30 °C. Measurement of the protein content was performed by the method of Bradford in Anal. Biochem. 72:248-254 (1976). Table 3: Summary of enzymatic activities with α-diketones, α-ketoaldehydes and /or α-ketoesters

Gox2107 = Gox2107 (Gluconobacter oxydans, UniProt Q5FP53); assay: Enzyme activity assay (rate of NAD(P)H decrease at 340 nm), Gox2107; assay type: biochemical; settings: for Specific Activity: Tab. 7, Gox2107, cofactor NADPH, 10 mM substrate, pH 7.0, 30 °C
Protocol: as §1, §2, §3

Gox2684 = biological target: T2, Gox2684 (Gluconobacter oxydans, UniProt Q5HXK5); assay: Enzyme activity assay (rate of NAD(P)H decrease at 340 nm), Gox2684; assay type: biochemical; settings: Tab. 8, GOX2684; cofactor NADPH; 10 mM substrate, pH 7.0, 30 °C
T2 sequence (Q5HXK5 1-357): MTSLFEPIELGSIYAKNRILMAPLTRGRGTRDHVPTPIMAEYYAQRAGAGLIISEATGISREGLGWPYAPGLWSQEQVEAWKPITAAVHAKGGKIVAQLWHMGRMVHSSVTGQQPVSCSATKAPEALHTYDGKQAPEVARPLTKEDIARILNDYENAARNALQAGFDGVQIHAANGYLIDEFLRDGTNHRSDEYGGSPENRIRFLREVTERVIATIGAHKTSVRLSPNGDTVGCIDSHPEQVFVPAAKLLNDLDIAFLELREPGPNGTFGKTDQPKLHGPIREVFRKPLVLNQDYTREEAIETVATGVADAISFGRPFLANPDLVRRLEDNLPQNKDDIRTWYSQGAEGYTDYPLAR
Protocol: as §1, §2, §3

Gox0502 = biological target: T3, Gox0502 (Gluconobacter oxydans, UniProt Q5FTL6); assay: Enzyme activity assay (rate of NAD(P)H decrease at 340 nm), Gox0502; assay type: biochemical; parameters: Strep-tag II (N); made in house; host or cells: E. coli BL21 or E. coli DH5α (pASK-IBA5); settings: 10 mM substrate; for Specific Activity: Tab. 7, Gox0502, cofactor NADPH, pH 7.0, 30 °C
T3 sequence (Q5FTL6 1-361): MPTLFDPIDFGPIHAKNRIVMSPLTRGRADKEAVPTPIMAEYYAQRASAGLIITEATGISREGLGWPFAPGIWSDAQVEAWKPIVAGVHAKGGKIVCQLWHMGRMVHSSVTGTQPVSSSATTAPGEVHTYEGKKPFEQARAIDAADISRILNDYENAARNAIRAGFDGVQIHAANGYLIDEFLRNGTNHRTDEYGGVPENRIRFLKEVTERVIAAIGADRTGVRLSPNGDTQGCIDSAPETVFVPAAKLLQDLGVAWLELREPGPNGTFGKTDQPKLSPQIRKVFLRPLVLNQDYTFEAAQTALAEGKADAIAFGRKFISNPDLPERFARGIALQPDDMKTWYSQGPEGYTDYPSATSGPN
Protocol: as §1, §2, §3

Gox0313 = biological target: T4, Gox0313 (Gluconobacter oxydans, UniProt Q5FU50); assay: Enzyme activity assay (rate of NAD(P)H decrease at 340 nm), Gox0313; assay type: biochemical; settings: 10 mM substrate; for Specific Activity: Tab. 6, Gox0313, substrate reduction, cofactor NADH, pH 7.0, 30 °C
T4 sequence (Q5FU50 1-343): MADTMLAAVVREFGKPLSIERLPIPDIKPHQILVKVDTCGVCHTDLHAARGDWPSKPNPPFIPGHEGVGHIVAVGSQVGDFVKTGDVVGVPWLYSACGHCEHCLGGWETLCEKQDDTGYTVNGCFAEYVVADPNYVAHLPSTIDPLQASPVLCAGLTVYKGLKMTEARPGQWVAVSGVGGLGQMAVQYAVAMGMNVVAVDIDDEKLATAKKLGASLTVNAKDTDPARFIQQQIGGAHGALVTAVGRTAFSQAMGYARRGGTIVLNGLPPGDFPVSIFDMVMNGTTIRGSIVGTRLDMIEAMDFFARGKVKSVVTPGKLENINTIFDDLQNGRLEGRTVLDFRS
Protocol: as §1, §2, §3

Gox0644 = Gox0644 (Gluconobacter oxydans, UniProt Q5FT75); assay: Enzyme activity assay (rate of NAD(P)H decrease at 340 nm), Gox0644; assay type: biochemical; settings: 10 mM substrate; for Specific Activity: Tab. 4, Gox0644, cofactor NADPH, pH 7.0, 30 °C
Protocol: (§4) Reactions were induced by addition of enzyme or substrate. One unit of enzyme activity was defined as the amount of enzyme catalyzing the conversion of 1 µmol of pyridine nucleotide per min at 30 °C.
as §4
For each enzyme (Gox0313, Gox0502, Gox0644, Gox0646, Gox1615, Gox2107, and Gox2684 respectively), fresh enzyme preparations were used to validate the substrate spectrum and the kinetic activity. […] Reactions were induced by addition of enzyme or substrate. One unit of enzyme activity was defined as the amount of enzyme catalyzing the conversion of 1 µmol of pyridine nucleotide per min at 30 °C. […] Table 3: Summary of enzymatic activities with α-diketones, α-ketoaldehydes and /or α-ketoesters

Gox1615 = biological target: T5, Gox1615 (Gluconobacter oxydans, UniProt Q5FQJ0); assay: Enzyme activity assay (rate of NAD(P)H decrease at 340 nm), Gox1615; assay type: biochemical; settings: 10 mM substrate; for Specific Activity: Tab. 5, Gox1615, cofactor NADPH, pH 7.0, 30 °C
T5 sequence (Q5FQJ0 1-332): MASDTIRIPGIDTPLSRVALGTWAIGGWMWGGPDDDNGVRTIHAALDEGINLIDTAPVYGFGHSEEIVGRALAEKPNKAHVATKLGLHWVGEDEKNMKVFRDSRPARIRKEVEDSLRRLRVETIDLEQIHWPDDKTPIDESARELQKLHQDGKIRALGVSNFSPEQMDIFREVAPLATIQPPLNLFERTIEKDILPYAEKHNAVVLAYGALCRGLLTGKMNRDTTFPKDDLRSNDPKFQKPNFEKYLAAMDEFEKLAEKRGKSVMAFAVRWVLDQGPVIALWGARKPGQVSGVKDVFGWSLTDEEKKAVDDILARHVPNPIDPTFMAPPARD
Protocol: as §1, §2, §3

[1] = substrate: CC=O; assay: Enzyme kinetics (Lineweaver-Burk plots), Gox0313; assay type: biochemical, Gluconobacter oxydans; settings: other: Gox0313; substrate 0.025 to 10 mM
Protocol: (§5) Determination of pH and temperature optima and enzyme kinetics: The optimum pH for enzyme activities was determined by a modified method of Salusjärvi, T. et al., Appl. Microbiol. Biotechnol. 65:306-314 (2004) using the following buffer system (50 mM final concentration each): sodium acetate pH 4.5 - 6.5, potassium phosphate pH 6.5 - 8.0, Tris-HCl pH 8.0 - 10. Temperature optima for the biocatalysts were determined under standard reaction conditions at temperatures ranging from 20 - 80 °C. The Michaelis constant (Km) for the proteins was determined from purified enzyme by Lineweaver-Burk plots. Assays were performed at optimum pH for each enzyme and at 30 °C using the top substrate and a targeted substrate. The Km for each substrate was calculated using concentrations of 0.0025 to 10 mM, and the Km NAD(P)H and NAD(P) was calculated using concentrations of 0.01 to 0.5 mM
(§6) The Michaelis constants were determined from purified enzyme by Lineweaver-Burk plots. The Km and Vmax values for the substrates were calculated using concentrations of 0.025 to 10 mM, The optimal pH values and temperatures for enzyme activities are also shown in Tab. 11. Tab. 11: Summary of kinetic parameters

[2] = substrate: CCC(=O)C(C)=O; assay: Enzyme kinetics (Lineweaver-Burk plots), Gox0313; assay type: biochemical, Gluconobacter oxydans; settings: other: Gox0313; substrate 0.025 to 10 mM
Protocol: as §5, §6

[3] = substrate: CCC(=O)C(C)=O; assay: Enzyme kinetics (Lineweaver-Burk plots), Gox0646; assay type: biochemical, Gluconobacter oxydans; settings: other: Gox0646; substrate 0.025 to 10 mM
Protocol: as §5, §6

## O=C1C=CC(=O)c2ccccc21 [1,4-naphthoquinone]
Gox0646
  Specific Activities: 0.2 U/mg
Gox2107; Gox2107, reduction with NADPH
  activities: 217.4 µmol/mg/min
Gox2107
  Specific Activity: 217.5 U/mg
Gox2684
  Specific Activities: 3.4 U/mg
Gox0502
  Specific Activity: 16.6 U/mg

## CC(=O)C(=O)c1ccccc1 [1-phenyl-1,2-propanedione]
Gox0313
  Specific Activity: 0.2 U/mg
Gox0313; Table 3, Gox0313, K-phosphate buffer pH 7.0, 0.05 mM NAD(P)H, 30 °C
  Activity: 0.2 U/mg
Gox0644
  Specific Activity: 75.4 U/mg
Gox0644; Table 3, Gox0644, K-phosphate buffer pH 7.0, 0.05 mM NAD(P)H, 30 °C
  Activity: 75.4 U/mg
Gox0646
  Specific Activities: 6.0 U/mg
Gox0646; Table 3, Gox0646, K-phosphate buffer pH 7.0, 0.05 mM NAD(P)H, 30 °C
  Activity: 6.0 U/mg
Gox1615
  Specific Activity: 5.4 U/mg
Gox1615; Table 3, Gox1615, K-phosphate buffer pH 7.0, 0.05 mM NAD(P)H, 30 °C
  Activity: 5.4 U/mg
Gox2107
  Specific Activity: < 0.1 U/mg
Gox0502
  Specific Activity: 2,0 U/mg
Gox0502; Table 3, Gox0502, K-phosphate buffer pH 7.0, 0.05 mM NAD(P)H, 30 °C
  Activity: 2.0 U/mg

## CC(=O)C(C)=O [2,3-butanedione]
Gox0313
  Specific Activity: 28.5 U/mg
Gox0644
  Specific Activity: 60.0 U/mg
Gox0646
  Specific Activities: 0.8 U/mg
Gox1615
  Specific Activity: 6 U/mg
Gox2107
  Specific Activity: < 0.1 U/mg
Gox2684
  Specific Activities: 0.5 U/mg
Gox0502
  Specific Activity: 0.5 U/mg

## O=C1Nc2ccccc2C1=O [Isatin]
Gox0644
  Specific Activity: 16.1 U/mg
Gox0646
  Specific Activities: 0.1 U/mg
Gox1615
  Specific Activity: 2.4 U/mg

## O=C1C=CC(=O)C=C1 [p-benzoquinone]
Gox0646
  Specific Activities: 0.3 U/mg
Gox2107
  Specific Activity: 180.5 U/mg
Gox0502
  Specific Activity: 10 U/mg

B1: Gox0313 (Gluconobacter oxydans 621H) (protein)
chain: MADTMLAAVVREFGKPLSIERLPIPDIKPHQILVKVDTCGVCHTDLHAARGDWPSKPNPPFIPGHEGVGHIVAVGSQVGDFVKTGDVVGVPWLYSACGHCEHCLGGWETLCEKQDDTGYTVNGCFAEYVVADPNYVAHLPSTIDPLQASPVLCAGLTVYKGLKMTEARPGQWVAVSGVGGLGQMAVQYAVAMGMNVVAVDIDDEKLATAKKLGASLTVNAKDTDPARFIQQQIGGAHGALVTAVGRTAFSQAMGYARRGGTIVLNGLPPGDFPVSIFDMVMNGTTIRGSIVGTRLDMIEAMDFFARGKVKSVVTPGKLENINTIFDDLQNGRLEGRTVLDFRS
[1]
  Km: 0.5 mM
  Vmax: 95 U/mg protein
[2]
  Km: 3.1 mM
  Vmax: 97 U/mg protein

B2: Gox0646 (Gluconobacter oxydans 621H) (protein)
chain: MLNLDLSGRTALVTGSTGGIGLAIARKLGEAGATVIINGRKQEGVDSALEKLAKAIPGGAFRSVVADVGTAEGCKALFEAESSVDVLVNNAGIFGPNDFFQTTDESWEHLFEVNLFSGVRLSRAYMPGMKERNWGRVLFIASESALNIPVEMVDYGVSKTAMLGLARGLAKLMAGTNVTVNSVLPGPTLSEGVEDMLKAQNPDSTRPVAELAAEFVQKHRPSNILRRMATVDEVANLVVYAASPLASATTGAALRVDGGTVDTI
[3]
  Km: 9 mM and 9.3 mM
  Vmax: 10 U/mg protein and 10.0 µmol/min•mg
